Results as given in the NIST ThermoML archive (doi:10.1021/je900124n).
Values joined by “and” are separate entries in the source; they are usually repeats but may differ in a detail not shown here. Identical values can stand only once. Numbers after ± are expanded uncertainties.

Conditions: Fluid (supercritical or subcritical phases), Buoyancy - hydrostatic balance with magnetic suspension - two sinkers

CCC [propane]
Conditions	mass density
400 K, 11790 kPa	357.33 ± 0.046 kg/m3
400 K, 11791 kPa	357.335 ± 0.046 kg/m3 [middle of 4 runs]
400 K, 15926 kPa	390.231 ± 0.049 kg/m3 [middle of 6 runs]
400 K, 15927 kPa	390.233 ± 0.049 kg/m3
400 K, 17448 kPa	398.971 ± 0.05 kg/m3
400 K, 17449 kPa	398.975 ± 0.05 kg/m3
400 K, 17450 kPa	398.984 ± 0.05 kg/m3 and 398.981 ± 0.05 kg/m3 and 398.978 ± 0.05 kg/m3
400 K, 29918 kPa	445.478 ± 0.055 kg/m3
400 K, 29922 kPa	445.491 ± 0.055 kg/m3
400 K, 29927 kPa	445.504 ± 0.055 kg/m3
400 K, 29932 kPa	445.516 ± 0.055 kg/m3
400 K, 29938 kPa	445.533 ± 0.055 kg/m3
400 K, 35836 kPa	460.067 ± 0.057 kg/m3
400 K, 35844 kPa	460.086 ± 0.057 kg/m3
400 K, 35852 kPa	460.105 ± 0.057 kg/m3
400 K, 35860 kPa	460.123 ± 0.057 kg/m3
400 K, 35868 kPa	460.142 ± 0.057 kg/m3
400.01 K, 3901.8 kPa	73.2154 ± 0.043 kg/m3
400.01 K, 3902 kPa	73.2198 ± 0.043 kg/m3
400.01 K, 10112 kPa	336.233 ± 0.048 kg/m3 and 336.235 ± 0.048 kg/m3 and 336.236 ± 0.048 kg/m3
420 K, 352.46 kPa	4.5346 ± 0.0029 kg/m3 and 4.5345 ± 0.0029 kg/m3 and 4.5347 ± 0.0029 kg/m3
420 K, 352.47 kPa	4.5348 ± 0.0029 kg/m3
420 K, 629.66 kPa	8.229 ± 0.0033 kg/m3
420 K, 629.67 kPa	8.2291 ± 0.0033 kg/m3
420 K, 990.94 kPa	13.2257 ± 0.0039 kg/m3
420 K, 991.11 kPa	13.2302 ± 0.0039 kg/m3
420 K, 992.11 kPa	13.2437 ± 0.0039 kg/m3
420 K, 993.37 kPa	13.2618 ± 0.0039 kg/m3
420 K, 994.27 kPa	13.2745 ± 0.0039 kg/m3
420 K, 1638.8 kPa	22.7735 ± 0.022 kg/m3 and 22.7726 ± 0.022 kg/m3
420 K, 1639 kPa	22.7748 ± 0.022 kg/m3
420 K, 1639.4 kPa	22.7815 ± 0.022 kg/m3 and 22.7817 ± 0.022 kg/m3
420 K, 2549.6 kPa	37.6977 ± 0.026 kg/m3
420 K, 2549.8 kPa	37.6995 ± 0.026 kg/m3 and 37.7007 ± 0.026 kg/m3 and 37.7006 ± 0.026 kg/m3
420 K, 3591.6 kPa	57.6483 ± 0.029 kg/m3
420 K, 3591.8 kPa	57.649 ± 0.029 kg/m3
420 K, 3592 kPa	57.6554 ± 0.029 kg/m3 and 57.6545 ± 0.029 kg/m3
420 K, 3592.3 kPa	57.6606 ± 0.029 kg/m3
420 K, 4243.9 kPa	72.25 ± 0.037 kg/m3
420 K, 4244 kPa	72.2514 ± 0.037 kg/m3
420 K, 5253.6 kPa	99.376 ± 0.016 kg/m3 and 99.3762 ± 0.016 kg/m3
420 K, 5253.7 kPa	99.3774 ± 0.016 kg/m3 and 99.3766 ± 0.016 kg/m3 and 99.3783 ± 0.016 kg/m3
420 K, 6605.8 kPa	147.752 ± 0.054 kg/m3
420 K, 6605.9 kPa	147.756 ± 0.054 kg/m3 and 147.757 ± 0.054 kg/m3
420 K, 6606 kPa	147.761 ± 0.054 kg/m3 and 147.757 ± 0.054 kg/m3
420 K, 6612.9 kPa	148.072 ± 0.023 kg/m3
420 K, 6613 kPa	148.069 ± 0.023 kg/m3
420 K, 6613.1 kPa	148.07 ± 0.023 kg/m3 and 148.073 ± 0.023 kg/m3
420 K, 6613.2 kPa	148.071 ± 0.023 kg/m3
420 K, 6780.5 kPa	155.128 ± 0.054 kg/m3 and 155.129 ± 0.054 kg/m3
420 K, 6780.6 kPa	155.129 ± 0.054 kg/m3 and 155.128 ± 0.054 kg/m3
420 K, 7709.3 kPa	196.595 ± 0.063 kg/m3
420 K, 7709.5 kPa	196.603 ± 0.063 kg/m3
420 K, 7709.6 kPa	196.603 ± 0.063 kg/m3
420 K, 7709.7 kPa	196.608 ± 0.063 kg/m3 and 196.605 ± 0.063 kg/m3 and 196.607 ± 0.063 kg/m3
420 K, 7709.8 kPa	196.607 ± 0.063 kg/m3
420 K, 7709.9 kPa	196.61 ± 0.063 kg/m3
420 K, 8228.3 kPa	219.041 ± 0.046 kg/m3
420 K, 8228.4 kPa	219.041 ± 0.046 kg/m3 and 219.043 ± 0.046 kg/m3
420 K, 8228.5 kPa	219.044 ± 0.046 kg/m3 and 219.042 ± 0.046 kg/m3 and 219.043 ± 0.046 kg/m3
420 K, 8228.6 kPa	219.042 ± 0.046 kg/m3 and 219.043 ± 0.046 kg/m3
420 K, 8848 kPa	242.768 ± 0.043 kg/m3 and 242.766 ± 0.043 kg/m3 and 242.77 ± 0.043 kg/m3
420 K, 8848.1 kPa	242.767 ± 0.043 kg/m3
420 K, 8848.2 kPa	242.772 ± 0.043 kg/m3 and 242.768 ± 0.043 kg/m3
420 K, 10126 kPa	279.933 ± 0.043 kg/m3 and 279.935 ± 0.043 kg/m3
420 K, 10127 kPa	279.933 ± 0.043 kg/m3 and 279.936 ± 0.043 kg/m3 and 279.935 ± 0.043 kg/m3
420 K, 13593 kPa	335.538 ± 0.044 kg/m3 [middle of 4 runs]
420 K, 20930 kPa	389.39 ± 0.05 kg/m3
420 K, 20931 kPa	389.391 ± 0.05 kg/m3 and 389.393 ± 0.05 kg/m3
420.01 K, 629.66 kPa	8.2291 ± 0.0033 kg/m3
420.01 K, 629.67 kPa	8.229 ± 0.0033 kg/m3
420.01 K, 4243.9 kPa	72.2481 ± 0.037 kg/m3 and 72.2491 ± 0.037 kg/m3 and 72.2487 ± 0.037 kg/m3
420.01 K, 4244 kPa	72.2505 ± 0.037 kg/m3 and 72.2532 ± 0.037 kg/m3 and 72.2519 ± 0.037 kg/m3
420.01 K, 6606 kPa	147.759 ± 0.054 kg/m3
420.01 K, 6606.4 kPa	147.771 ± 0.054 kg/m3
420.01 K, 13593 kPa	335.538 ± 0.044 kg/m3 and 335.537 ± 0.044 kg/m3
420.01 K, 20931 kPa	389.392 ± 0.05 kg/m3 and 389.394 ± 0.05 kg/m3
420.01 K, 20932 kPa	389.393 ± 0.05 kg/m3
440 K, 368.32 kPa	4.5138 ± 0.0029 kg/m3 and 4.514 ± 0.0029 kg/m3 and 4.5139 ± 0.0029 kg/m3
440 K, 658.93 kPa	8.1892 ± 0.0033 kg/m3
440 K, 658.95 kPa	8.1897 ± 0.0033 kg/m3
440 K, 1032.5 kPa	13.0703 ± 0.0039 kg/m3 and 13.0712 ± 0.0039 kg/m3
440 K, 1032.8 kPa	13.0744 ± 0.0039 kg/m3
440 K, 1733.1 kPa	22.7483 ± 0.021 kg/m3
440 K, 1733.2 kPa	22.75 ± 0.021 kg/m3 and 22.7499 ± 0.021 kg/m3 and 22.7504 ± 0.021 kg/m3
440 K, 1733.4 kPa	22.752 ± 0.021 kg/m3
440 K, 2721.5 kPa	37.7309 ± 0.024 kg/m3
440 K, 2721.7 kPa	37.7344 ± 0.024 kg/m3
440 K, 2721.8 kPa	37.7372 ± 0.024 kg/m3
440 K, 2721.9 kPa	37.7372 ± 0.024 kg/m3
440 K, 2722.1 kPa	37.7402 ± 0.024 kg/m3
440 K, 3865 kPa	57.5204 ± 0.027 kg/m3
440 K, 3865.3 kPa	57.5255 ± 0.027 kg/m3
440 K, 3865.4 kPa	57.5267 ± 0.027 kg/m3
440 K, 3865.5 kPa	57.5266 ± 0.027 kg/m3
440 K, 3865.7 kPa	57.532 ± 0.027 kg/m3
440 K, 4613.1 kPa	72.2413 ± 0.012 kg/m3 [middle of 4 runs]
440 K, 5803.9 kPa	99.3306 ± 0.016 kg/m3 and 99.3318 ± 0.016 kg/m3
440 K, 5804 kPa	99.3333 ± 0.016 kg/m3 and 99.3338 ± 0.016 kg/m3
440 K, 7526.8 kPa	147.61 ± 0.042 kg/m3 and 147.611 ± 0.042 kg/m3
440 K, 7535.9 kPa	147.904 ± 0.022 kg/m3 and 147.903 ± 0.022 kg/m3
440 K, 7536 kPa	147.904 ± 0.022 kg/m3
440 K, 7762.5 kPa	154.944 ± 0.043 kg/m3
440 K, 7762.6 kPa	154.945 ± 0.043 kg/m3 and 154.944 ± 0.043 kg/m3
440 K, 9826.6 kPa	218.701 ± 0.053 kg/m3 and 218.702 ± 0.053 kg/m3 and 218.7 ± 0.053 kg/m3
440 K, 9826.7 kPa	218.702 ± 0.053 kg/m3 and 218.7 ± 0.053 kg/m3 and 218.701 ± 0.053 kg/m3
440.01 K, 658.93 kPa	8.1888 ± 0.0033 kg/m3
440.01 K, 658.95 kPa	8.1894 ± 0.0033 kg/m3 and 8.1895 ± 0.0033 kg/m3
440.01 K, 1032.5 kPa	13.0692 ± 0.0039 kg/m3
440.01 K, 1032.8 kPa	13.0752 ± 0.0039 kg/m3
440.01 K, 4613.1 kPa	72.2397 ± 0.012 kg/m3 and 72.2408 ± 0.012 kg/m3 and 72.2337 ± 0.012 kg/m3
440.01 K, 7526.8 kPa	147.613 ± 0.042 kg/m3 and 147.61 ± 0.042 kg/m3 and 147.611 ± 0.042 kg/m3
440.01 K, 7526.9 kPa	147.613 ± 0.042 kg/m3 and 147.612 ± 0.042 kg/m3
460 K, 384.07 kPa	4.4943 ± 0.0029 kg/m3 [middle of 5 runs]
460 K, 687.74 kPa	8.1494 ± 0.0033 kg/m3
